{"source": "paper PMC6522510", "about": "(Nature Communications, 2019)", "key": {"[1]": {"system": "CMK", "assay": "Secondary dose-response HTS, Cell Titer Glo", "assay_type": "cell-based, human", "settings": "secondary high-throughput screen, CMK; for EC50: read-out: average effective concentration, CMK"}, "[2]": {"system": "ML2", "assay": "Secondary dose-response HTS, Cell Titer Glo", "assay_type": "cell-based, human", "settings": "secondary high-throughput screen, ML-2; for EC50: read-out: average effective concentration, ML-2"}, "[3]": {"system": "CMS", "assay": "Secondary dose-response HTS, Cell Titer Glo", "assay_type": "cell-based, human", "settings": "secondary high-throughput screen, CMS; for EC50: read-out: average effective concentration, CMS"}, "[4]": {"system": "U937", "assay": "Secondary dose-response HTS, Cell Titer Glo", "assay_type": "cell-based, human", "settings": "secondary high-throughput screen, U937; for EC50: read-out: average effective concentration, U937"}, "[5]": {"system": "CHRF288-11", "assay": "Secondary dose-response HTS, Cell Titer Glo", "assay_type": "cell-based, human", "settings": "secondary high-throughput screen, CHRF288-11; for EC50: Homo sapiens, HTS, read-out: average effective concentration, CHRF288-11"}, "[6]": {"system": "M07e", "assay": "Secondary dose-response HTS, Cell Titer Glo", "assay_type": "cell-based, human", "settings": "secondary high-throughput screen; for EC50: read-out: average effective concentration, M07e"}, "[7]": {"system": "MV4-11", "assay": "Secondary dose-response HTS, Cell Titer Glo", "assay_type": "cell-based, human", "settings": "secondary high-throughput screen; MV4-11"}, "[8]": {"system": "MOLM-13", "assay": "Secondary dose-response HTS, Cell Titer Glo", "assay_type": "cell-based, human", "settings": "Homo sapiens; secondary high-throughput screen; MOLM-13; read-out: average effective concentration, MOLM-13"}, "[9]": {"system": "MV4-11", "assay": "cells", "parameters": "species or system AML cell lines (8); Secondary HTS, 10-point dose-response in triplicate, Cell Titer Glo viability, four-parameter fit EC50", "settings": "Homo sapiens, MV4-11, 72 h, read-out: MV4-11"}, "[10]": {"system": "CMK", "assay": "cells", "parameters": "species or system AML cell lines (8); Secondary HTS, 10-point dose-response in triplicate, Cell Titer Glo viability, four-parameter fit EC50", "settings": "Homo sapiens, CMK, 72 h, read-out: CMK"}, "[11]": {"system": "CMS", "assay": "cells", "parameters": "species or system AML cell lines (8); Secondary HTS, 10-point dose-response in triplicate, Cell Titer Glo viability, four-parameter fit EC50", "settings": "72 h, read-out: CMS"}, "[12]": {"system": "U937", "assay": "cells", "parameters": "species or system AML cell lines (8); Secondary HTS, 10-point dose-response in triplicate, Cell Titer Glo viability, four-parameter fit EC50", "settings": "Homo sapiens, U-937, 72 h, read-out: U937"}}, "note": "Read-outs that look alike come from different tables or passages of the source."}
{"compound": "O=C(CCCCCN1C(=O)c2cccc3cccc(c23)C1=O)NO", "values": [{"measurement": "EC50", "setting": "[1]; Homo sapiens", "value": 0.2, "unit": "µM"}, {"measurement": "EC50", "setting": "[2]; Homo sapiens", "value": 4.1, "unit": "µM"}, {"measurement": "EC50", "setting": "[3]; Homo sapiens, HTS", "value": 0.6, "unit": "µM"}, {"measurement": "EC50", "setting": "[4]; Homo sapiens, U-937", "value": 0.68, "unit": "µM"}, {"measurement": "EC50", "setting": "[5]", "value": 1.7, "unit": "µM"}, {"measurement": "EC50", "setting": "[6]; Homo sapiens, M-07e, M07e", "value": 0.33, "unit": "µM"}]}
{"compound": "O=c1[nH]c2ccccc2c2ccccc12", "note": "[6(5H)-PHENANTHRIDINONE]", "values": [{"measurement": "average effective concentration, CMK", "setting": "[1]", "value": "Inactive"}, {"measurement": "average effective concentration, CMS", "setting": "[3]", "value": "Inactive"}, {"measurement": "average effective concentration, U937", "setting": "[4]", "value": "Inactive"}, {"measurement": "average effective concentration, MV4-11", "setting": "[7]", "value": "Inactive"}, {"measurement": "average effective concentration, M07e", "setting": "[6]; M07e", "value": "Inactive"}]}
{"compound": "CC(C)(O)[C@@H]1CC[C@](C)([C@H]2[C@@H](O)C[C@@]3(C)[C@@H]4C[C@H](O[C@@H]5O[C@H](CO)[C@@H](O)[C@H](O)[C@H]5O)[C@H]5C(C)(C)[C@@H](O[C@@H]6OC[C@@H](O)[C@H](O)[C@H]6O)CC[C@@]56C[C@@]46CC[C@]23C)O1", "note": "[ASTRAGALOSIDE IV]", "values": [{"measurement": "average effective concentration, CMK", "setting": "[1]", "value": "Inactive"}, {"measurement": "average effective concentration, CMS", "setting": "[3]", "value": "Inactive"}, {"measurement": "average effective concentration, U937", "setting": "[4]", "value": "Inactive"}, {"measurement": "average effective concentration, MV4-11", "setting": "[7]", "value": "Inactive"}, {"measurement": "average effective concentration, M07e", "setting": "[6]; M07e", "value": "Inactive"}]}
{"compound": "C=C(C)[C@@H](CC=C(C)C)C[C@@]12C[C@@H](CC=C(C)C)C(C)(C)[C@@](CC=C(C)C)(C(=O)C(C(=O)c3ccc(O)c(O)c3)=C1O)C2=O", "note": "[GARCINOL]", "values": [{"measurement": "EC50", "setting": "[2]; Homo sapiens", "value": 5.4, "unit": "µM"}, {"measurement": "EC50", "setting": "[8]", "value": 5.1, "unit": "µM"}, {"measurement": "EC50", "setting": "[9]", "value": "> 10", "unit": "µM"}, {"measurement": "EC50", "setting": "[10]", "value": "> 10", "unit": "µM"}, {"measurement": "EC50", "setting": "[11]", "value": "> 10", "unit": "µM"}, {"measurement": "EC50", "setting": "[5]", "value": 5.8, "unit": "µM"}, {"measurement": "EC50", "setting": "[12]", "value": "> 10", "unit": "µM"}, {"measurement": "EC50", "setting": "[6]; Homo sapiens, M-07e, […]", "value": "> 10", "unit": "µM"}]}
{"compound": "COC1=C2C[C@@H](C)C[C@H](OC)[C@H](O)[C@@H](C)/C=C(\\C)[C@H](OC(N)=O)[C@@H](OC)/C=C\\C=C(/C)C(=O)NC(=CC1=O)C2=O", "note": "[GELDANOMYCIN]", "values": [{"measurement": "average effective concentration, CMK", "setting": "[1]", "value": "Inactive"}, {"measurement": "average effective concentration, CMS", "setting": "[3]", "value": "Inactive"}, {"measurement": "average effective concentration, CHRF288-11", "setting": "[5]", "value": "Inactive"}, {"measurement": "average effective concentration, M07e", "setting": "[6]; M07e", "value": "Inactive"}]}
{"compound": "COC(=O)[C@H](CC(C)C)NC(=O)c1ccc(NC[C@@H](N)CS)cc1-c1cccc2ccccc12", "note": "[GGTI 298]", "values": [{"measurement": "average effective concentration, CMK", "setting": "[1]", "value": "Inactive"}, {"measurement": "average effective concentration, ML-2", "setting": "[2]", "value": "Inactive"}, {"measurement": "average effective concentration, CMS", "setting": "[3]", "value": "Inactive"}, {"measurement": "average effective concentration, CHRF288-11", "setting": "[5]", "value": "Inactive"}, {"measurement": "average effective concentration, M07e", "setting": "[6]; M07e", "value": "Inactive"}]}
{"compound": "CCc1c(O)cc(O)c(C(=O)c2ccc(OCCN3CCOCC3)c(OC)c2)c1CC(=O)N(CCOC)CCOC.Cl", "note": "[KW-2478]", "values": [{"measurement": "average effective concentration, CMS", "setting": "[3]", "value": "Inactive"}, {"measurement": "average effective concentration, U937", "setting": "[4]", "value": "Inactive"}, {"measurement": "average effective concentration, M07e", "setting": "[6]; M07e", "value": "Inactive"}]}
{"compound": "Nc1ncnc2c1ncn2[C@@H]1C=C(CO)[C@@H](O)[C@H]1O", "note": "[NEPLANOCIN A]", "values": [{"measurement": "average effective concentration, CMS", "setting": "[3]", "value": "Inactive"}, {"measurement": "average effective concentration, MV4-11", "setting": "[7]", "value": "Inactive"}, {"measurement": "average effective concentration, M07e", "setting": "[6]; […]", "value": "Inactive"}]}
{"compound": "Oc1cccc(-c2nc(N3CCOCC3)c3oc4ncccc4c3n2)c1", "note": "[PIK 103]", "values": [{"measurement": "average effective concentration, ML-2", "setting": "[2]", "value": "Inactive"}, {"measurement": "average effective concentration, CMS", "setting": "[3]", "value": "Inactive"}, {"measurement": "average effective concentration, CHRF288-11", "setting": "[5]", "value": "Inactive"}, {"measurement": "average effective concentration, M07e", "setting": "[6]; M07e", "value": "Inactive"}]}
{"compound": "C[S+]([O-])CCCCN=C=S", "note": "(stereo not drawn) [SULFORAPHANE]", "values": [{"measurement": "EC50", "setting": "[2]; Homo sapiens", "value": "> 10", "unit": "µM"}, {"measurement": "EC50", "setting": "[3]; Homo sapiens, HTS", "value": "> 10", "unit": "µM"}, {"measurement": "EC50", "setting": "[4]; Homo sapiens, U-937", "value": "> 10", "unit": "µM"}, {"measurement": "EC50", "setting": "[5]", "value": "> 10", "unit": "µM"}, {"measurement": "EC50", "setting": "[6]; Homo sapiens, M-07e, M07e", "value": "> 10", "unit": "µM"}]}
{"compound": "Cc1cc(C(C)Nc2ccccc2)c2nc(N3CCOCC3)cc(=O)n2c1", "note": "(stereo not drawn) [TGX-221]", "values": [{"measurement": "average effective concentration, ML-2", "setting": "[2]", "value": "Inactive"}, {"measurement": "average effective concentration, CMS", "setting": "[3]", "value": "Inactive"}, {"measurement": "average effective concentration, U937", "setting": "[4]", "value": "Inactive"}, {"measurement": "average effective concentration, CHRF288-11", "setting": "[5]", "value": "Inactive"}, {"measurement": "average effective concentration, M07e", "setting": "[6]; M07e", "value": "Inactive"}]}
{"compound": "O=C(CCCCCCC(=O)Nc1ccc([C@H]2O[C@@H](CSc3nc(-c4ccccc4)c(-c4ccccc4)o3)C[C@@H](c3ccc(CO)cc3)O2)cc1)NO", "note": "[TUBACIN]", "values": [{"measurement": "EC50", "setting": "[2]; Homo sapiens", "value": "> 10", "unit": "µM"}, {"measurement": "EC50", "setting": "[8]", "value": "> 10", "unit": "µM"}, {"measurement": "EC50", "setting": "[9]", "value": "> 10", "unit": "µM"}, {"measurement": "EC50", "setting": "[10]", "value": "> 10", "unit": "µM"}, {"measurement": "EC50", "setting": "[11]", "value": "> 10", "unit": "µM"}, {"measurement": "EC50", "setting": "[5]", "value": "> 10", "unit": "µM"}, {"measurement": "EC50", "setting": "[12]", "value": "> 10", "unit": "µM"}, {"measurement": "EC50", "setting": "[6]; Homo sapiens, M-07e, […]", "value": 2.5, "unit": "µM"}]}
{"compound": "EVODIAMINE", "values": [{"measurement": "EC50", "setting": "[1]", "value": 0.3, "unit": "µM"}, {"measurement": "EC50", "setting": "[2]", "value": 0.45, "unit": "µM"}, {"measurement": "EC50", "setting": "[3]", "value": 1.5, "unit": "µM"}, {"measurement": "EC50", "setting": "[4]", "value": 2.1, "unit": "µM"}, {"measurement": "EC50", "setting": "[6]; […]", "value": 4.4, "unit": "µM"}]}
